# Laboratory results reported in patent US10238710B2, “Peptide having anti-inflammatory, osteogenic and hair growth promoting activities, and use of same” (CAREGEN CO., LTD., priority 2014, dated 2019).
# How the values were obtained:
# TNFR = assay: Receptor binding assay (TNFR), ELISA; settings: peptide coated 50 μg/25 μl, O.D. 450 nm, positive control TNF-α
# NF-κB = assay: Western blotting in HaCaT cells, nuclear translocation of NF-κB activated by TNF-α; format: cell-based, human; settings: peptide at different concentrations
# IL-8 = IL-8 ELISA in THP-1 cells treated with TNF-α; format: cell-based, human; settings: 10 μg/ml pre-treatment 30 minutes, 50 ng/ml TNF-α, 24 hours
# Experimental: The human monocytes, THP-1 cells were seeded on a 24-well plate at a density of 2×10^6 cells/well. After incubation overnight, the cells were pre-treated with the samples at 10 μg/ml for 30 minutes, and treated with 50 ng/ml TNF-α, followed by incubation for 24 hours. The cell incubation medium was obtained, followed by centrifugation at 13,000 rpm for 10 minutes at 4° C., and then the supernatant was separated. ELISA was carried out using IL-1b and IL-8 ELISA kit (R&D system).
# HGFR = molecular target: T1, HGFR (Homo sapiens, UniProt P08581); assay: Receptor binding assay (HGFR), ELISA; settings: peptide coated 50 μg/25 μl, O.D. 450 nm
# T1 construct: purchased R&D Systems
# T1 sequence (P08581 25-1390): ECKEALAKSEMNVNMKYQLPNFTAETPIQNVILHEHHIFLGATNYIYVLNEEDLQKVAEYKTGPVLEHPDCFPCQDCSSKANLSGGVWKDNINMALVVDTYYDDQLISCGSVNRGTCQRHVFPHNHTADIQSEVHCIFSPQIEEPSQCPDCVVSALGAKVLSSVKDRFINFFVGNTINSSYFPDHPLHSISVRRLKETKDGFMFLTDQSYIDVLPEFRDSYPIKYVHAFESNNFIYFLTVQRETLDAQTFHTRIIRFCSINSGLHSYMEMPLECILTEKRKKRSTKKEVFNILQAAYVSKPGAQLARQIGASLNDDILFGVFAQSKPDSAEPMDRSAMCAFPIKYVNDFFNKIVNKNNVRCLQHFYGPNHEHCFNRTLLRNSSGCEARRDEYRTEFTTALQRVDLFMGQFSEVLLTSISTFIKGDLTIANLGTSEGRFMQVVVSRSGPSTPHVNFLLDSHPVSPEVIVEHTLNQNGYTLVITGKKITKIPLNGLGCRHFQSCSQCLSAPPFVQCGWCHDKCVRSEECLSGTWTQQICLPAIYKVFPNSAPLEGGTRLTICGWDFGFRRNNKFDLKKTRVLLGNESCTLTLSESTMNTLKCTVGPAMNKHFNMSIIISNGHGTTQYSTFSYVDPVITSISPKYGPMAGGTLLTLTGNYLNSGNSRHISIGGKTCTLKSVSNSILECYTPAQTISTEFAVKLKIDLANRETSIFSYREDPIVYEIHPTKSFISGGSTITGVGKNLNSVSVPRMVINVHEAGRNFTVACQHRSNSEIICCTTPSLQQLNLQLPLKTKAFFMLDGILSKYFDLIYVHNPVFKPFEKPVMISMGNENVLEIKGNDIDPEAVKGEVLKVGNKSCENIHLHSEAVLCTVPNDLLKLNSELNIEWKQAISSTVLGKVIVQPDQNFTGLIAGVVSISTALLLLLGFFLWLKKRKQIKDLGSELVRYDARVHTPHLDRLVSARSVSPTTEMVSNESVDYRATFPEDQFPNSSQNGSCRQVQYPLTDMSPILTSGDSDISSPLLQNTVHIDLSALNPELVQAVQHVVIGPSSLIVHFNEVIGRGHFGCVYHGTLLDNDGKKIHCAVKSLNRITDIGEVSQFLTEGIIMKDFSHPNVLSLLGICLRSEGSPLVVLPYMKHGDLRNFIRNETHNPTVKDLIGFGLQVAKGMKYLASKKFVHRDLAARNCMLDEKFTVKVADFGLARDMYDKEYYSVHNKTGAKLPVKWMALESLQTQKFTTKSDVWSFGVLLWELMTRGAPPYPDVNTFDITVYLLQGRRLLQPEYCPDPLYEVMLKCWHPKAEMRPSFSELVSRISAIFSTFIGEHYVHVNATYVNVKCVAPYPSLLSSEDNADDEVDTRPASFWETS
# Experimental: On an ELISA plate, 50 μg/25 μl peptide and 25 μl of a coating buffer (20 mM sodium phosphate pH 9.6) were added and mixed, and then incubated at 4° C. overnight. After washing three times with PBST (300 μl), the blocking with 200 μl of a blocking buffer (3% BSA) was carried out at room temperature for 2 hours. After washing three times with PBST (300 μl), HGFR (R&D Systems) was added at 0.5 μg/1 ml per well, followed by incubation at room temperature for 2 hours. After washing three times with PBST (300 μl), anti-human IgG-HRP was diluted at 1:1,000, which was then added at 100 μl per well, followed by incubation at room temperature for 2 hours. After washing three times with PBST (300 μl), 100 μl of TMB solution was added, followed by color development. 50 μl of a stop solution (3 N H2SO4) was added to stop the reaction, and then the absorbance was read at O.D. 450 nm.
# MC3T3-E1 cells = assay: Alizarin red staining (mineralization) of MC3T3-E1 cells; format: cell-based, mouse; settings: MC3T3-E1, 10 and 50 μg/ml, 14 days
# Experimental: Here, the medium exchange every three days and the treatment with the peptide were repeated (positive control: 30 ng/ml rhBMP2 (Cell signaling)). After the completion of the incubation, the plate well was washed two times with PBS, and the cells were immobilized by the treatment with 70% EtOH for 1 hour. Then, the cells were stained with 40 mM Alizarin red S (pH 4.2, Sigma Aldrich) for 10 minutes. The cells were treated with 10% cetyl pyridinium chloride (dissolved in 10 mM sodium phosphate (pH 7.0)) for 15 minutes, and then the absorbance was read at 560 nm using a spectrophotometer (SpectraMax, Molecular Devices).
# osteoprotegerin (OPG) = assay: RT-PCR of osteogenic differentiation marker OPG; format: cell-based, mouse; settings: MC3T3-E1, three days
# bone sialoprotein (BSP) = assay: RT-PCR of osteogenic differentiation marker BSP; format: cell-based, mouse; settings: MC3T3-E1, three days
# [1] = tested on: human hair follicle germinal matrix cells (HFGMC); assay: Cell proliferation assay (SRB), HFGMC; format: cell-based; settings: 1, 10 and 50 μg/ml, 72 hours
# Experimental: In order to observe the cell proliferation effect on human hair follicle dermal papilla cells, human hair follicle germinal matrix cells, and human umbilical vein endothelial cells, which are main hair cells, each type of cells were seeded on a 96-well plate at a density of 3×10^3 cells/well, followed by incubation under conditions of 37° C. and 5% CO2 for 24 hours. After the medium was exchanged with the same culture medium completely excluding serum, the cells were treated with the peptides at different concentrations (1 μg/ml, 10 μg/ml, and 50 μg/ml), followed by incubation under the same conditions for 72 hours. After the incubation supernatant was removed, the cells were immobilized using ethanol, and washed three times with phosphate buffer saline (PBS). The wash solution was removed, and the cells were stained through the treatment with colorimetric SRB solution. After the cells were sufficiently washed with 1% acetic acid, the cells were observed using a microscope to observe the state of living cells. The absorbance was read at UV light of 560 nm, thereby measuring the survival conditions of cells
# PI3K = assay: Western blotting of cell signaling material, PI3K; format: cell-based, human; settings: HFDPC, 1 and 10 μg/ml, 30 minutes and 60 minutes
# Experimental: In order to observe the changes in the phosphorylation of ERK and the expression of PI3K, which are main signaling materials involved in cell proliferation in the human hair follicle dermal papilla cells, the cells were treated with the peptides of the present invention for 30 minutes and 60 minutes, and then subjected to western blotting using specific antibodies, thereby observing the pERK and PI3K changes. The test was carried out using anti-pERK antibody (Santa Cruz Biotechnology, USA) and anti-pPI3K antibody (Santa Cruz Biotechnology, USA).
# The cells were treated with the cell lysis buffer to obtain a lysate, followed by protein quantification, and then western blotting was performed with respect to Phospho-ERK (pERK), PI3K, and β-catenin.
# DKK-1 = assay: Western blotting of DKK-1 with hair loss causing hormone DHT; format: cell-based, human; settings: HFDPC, 5 μg/ml DHT together with peptide 1 and 10 μg/ml, 48 hours
# Experimental: The cells were treated with DHT and the peptides for 48 hours, and then subjected to western blotting with respect to DKK-1 using specific antibodies, thereby observing the expression of DKK-1.
# The human hair follicle dermal papilla cells were seeded on a 6-well plate at a density of 1×10^5 cells/well. The cells were stabilized by incubation overnight, and then treated with 5 μg/ml DHT (Sigma Aldrich) together with the peptides at different concentrations (1 μg/ml and 10 μg/ml) for 48 hours. The cells were treated with the cell lysis buffer to obtain a lysate, followed by protein quantification, and then western blotting was performed with respect to DKK-1 using anti-DKK-1 antibody (Santa Cruz Biotechnology, USA).
# Ha3-II and keratin 14 = assay: RT-PCR of keratinocyte differentiation markers in HaCaT cells; format: cell-based, human; settings: HaCaT, 0.1, 1 and 10 μg/ml, 24 hours
# Experimental: The cells were treated with the peptides at different concentrations (0.1 μg/ml, 1 μg/ml, and 10 μg/ml), and then incubated in an incubator at 37° C. for 24 hours. […] RT-PCR was carried out using primers of respective markers (Ha3-II and keratin 14) and PCR pre-mix (Intron) to measure the changes in the expression of the markers.
# Target-specific primer sequences used in PCR for keratinocyte differentiation markers were as follows: Ha3-II forward primer sequence, 5′-[…]-3′ and Ha3-II reverse primer, 5′-[…]-3′ (annealing temperature, 60° C.); Keratin14 forward primer sequence, 5′-[…]-3′ and Keratin14 reverse primer, 5′-[…]-3′ (annealing temperature, 60° C.)
substance,measurement,setting,value
NH2-Ala-Cys-Arg-Ser-Ala-Ile-Gly-Arg-Pro-Cys-COOH (H-ACRSAIGRPC-OH; cysteine pairing not given here) [SEQ ID NO: 1],binding affinity to TNFR,TNFR,high binding affinity
same,nuclear translocation of NF-κB activated by TNF-α treatment,NF-κB,reduced
same,expression of IL-8 increased by TNF-α treatment,IL-8,inhibited
same,binding affinity on HGFR,HGFR,high binding affinity
same,mineralization (Alizarin red staining),MC3T3-E1 cells,increased
same,expression of osteoprotegerin (OPG),osteoprotegerin (OPG),increased
same,expression of bone sialoprotein (BSP),bone sialoprotein (BSP),increased
same,"cell proliferation, HFGMC",[1],increased in a concentration-dependent manner
same,level of PI3K,PI3K,increased
same,expression of DKK-1 increased by DHT,DKK-1,reduced
same,mRNA expression levels of differentiation markers Ha3-II and keratin 14,Ha3-II and keratin 14,keratinocyte differentiation promoting effect
